In patent EP0591697B1, “Cloning and characterization of the growth hormone releasing hormone receptor” (Thorner, Michael Oliver, priority 1992, dated 1994):
Entries after “also recorded” stand apart in the source; their conditions may differ. Where no end group is shown, it is not given here.

Assays:
GHRH-R [1] = experiment: GHRH binding assay in crude anterior pituitary membrane pellets (125I-GHRHa); set-up: species or system ovine; settings: for displacement of GHRH in ovine pituitary: at 500 nM; for competition for the GHRHa binding site: at 100 nanomolar concentrations
Description: Specific binding is defined as the difference in the binding seen with 20 pM iodinated analog alone and binding of the analog in the presence of 10 nM non-iodinated GHRHa.
All steps were performed at 4°C. Frozen ovine or bovine anterior pituitaries (ovine: approximately 1 gm/pituitary obtained from Dr. Ian Clarke, Melbourne, Australia; bovine: approximately 2.5 gm/pituitary special handling from Pel-Freez, of Rogers, Arkansas) were washed of blood, cleaned of connective tissue and homogenized (using a Dounce homogenizer) in 50mM HEPES buffer, 100 mM NaCl, 10mM EDTA, 0.1 µM EGTA, pH 7.4 with 0.5 mM PMSF (phenyl methyl sulfonyl fluoride), 10 µg/ml leupeptin, 10 µg/ml pepstatin A, and 200 U/ml (units/ml) aprotinin. This buffer is used to remove endogenous GTP which might be bound to G proteins and to restore high affinity binding. The homogenate was spun at top speed in a microfuge and the supernatant discarded. The upper (membrane) layer of the pellet was then gently resuspended in binding buffer containing 50 mM Tris buffer, 5 mM EGTA, 5 mM MgCl2, 50µg/ml alamethicin, 30 µg/ml bacitracin and other protease inhibitors as above.
1/50 pituitary equivalent per tube was incubated in binding buffer with approximately 100,000 counts of iodinated probe in a volume of 500 µl at room temperature for 1 hour. The total counts delivered and the percent of counts bound for each tube was determined with 3 to 6 replicates per experimental condition. Saturation binding profiles were analyzed with the computer program Ligand which performs a statistically weighted least squares fit to the exact ligand binding equation in nontransformed coordinates.

GHRH-R [2] = experiment: Photoaffinity cross-linking of receptor in pituitary membranes, SDS-PAGE autoradiography; assay type: binding, ovine
Description: Photoprobe binding in ovine pituitary membrane pellets was determined by γ-counting and UV induced cross-linking was examined by autoradiagraphy of sodium dodecylsulfate polyacrylamide electrophoresis (SDS-PAGE) gels. ^125I-GHRHa-ANB-NOS probe bound with an affinity of about one nanomole, nM (compared to about 160 picomole, pM, for GHRHa).
Photoprobe binding to membranes was evaluated with crude membrane binding assay and then analyzed further by SDS-PAGE electrophoresis to identify the binding sites. Photoprobes were incubated in the dark, photolysed for 10 minutes with a long wave (366 nm) UV lamp, and then the samples were pelleted. The pellets were counted and then extracted by boiling directly in SDS sample buffer (total SDS extracts). Alternatively, the labeled pellets were extracted in a mild detergent solution (5 mM CHAPS) centrifuged, and the chloroform/methanol concentrated supernatants denatured with SDS buffer (CHAPS extracts). These samples were then electrophoresed in SDS gels and autoradiographed.

[3] = target: T1, secretin and VIP receptors (Homo sapiens, UniProt P47872); settings: human pancreas, cited from earlier work; for inhibition: at 10 µM, 125I-secretin
T1 construct: host or cells: human pancreas

GHRH-R [4] = target: T2, GHRH-R (Homo sapiens, UniProt Q02643); experiment: Iodinated GHRHa binding to COS cells / COS cell membranes transfected with pCDM8 containing HAP 7 cDNA; settings: for binding of iodinated GHRH in presence of peptide: 100 nM of peptide
T2 construct: expressed in transfected cells
T2 sequence (Q02643 23-423): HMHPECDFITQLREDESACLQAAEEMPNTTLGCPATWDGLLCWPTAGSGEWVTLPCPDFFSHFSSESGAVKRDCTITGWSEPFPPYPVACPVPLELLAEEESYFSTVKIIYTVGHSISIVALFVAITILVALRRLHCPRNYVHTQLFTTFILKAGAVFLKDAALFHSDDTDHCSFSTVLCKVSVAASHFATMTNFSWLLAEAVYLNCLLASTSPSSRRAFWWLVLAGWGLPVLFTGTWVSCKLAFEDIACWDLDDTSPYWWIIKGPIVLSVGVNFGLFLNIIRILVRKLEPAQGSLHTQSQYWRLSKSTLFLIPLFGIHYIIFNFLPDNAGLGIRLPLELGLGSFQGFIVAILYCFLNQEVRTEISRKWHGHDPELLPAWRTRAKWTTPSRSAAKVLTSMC
Description: The bars indicate the total counts bound to the cells after incubation with ^125I-GHRHa or in the presence of gradually increasing amounts of non-iodinated GRF.
Binding in the presence of increasing concentrations of competing peptides is shown. […] Each point represents an N of 6 ± standard error. Non-specific binding was 20-30% of total counts in COS cell membranes, and 40-60% in crude pituitary membranes.
Cos-1 cells were transfected with the vector formed by splicing pCDM8 and HAP cDNA, and Cos-1 cell membranes were prepared 72 hours subsequently. Cos-1 cells were transfected using 10 µg of plasmid DNA per 6x10^5 cells in a 100-mm dish using the DEAE-dextran method described by Cullen. […] COS cell cultures were transfected in parallel with pCDM8 containing a cDNA encoding the rat AT1 angiotensin II receptor.

T1 sequence (P47872 23-440): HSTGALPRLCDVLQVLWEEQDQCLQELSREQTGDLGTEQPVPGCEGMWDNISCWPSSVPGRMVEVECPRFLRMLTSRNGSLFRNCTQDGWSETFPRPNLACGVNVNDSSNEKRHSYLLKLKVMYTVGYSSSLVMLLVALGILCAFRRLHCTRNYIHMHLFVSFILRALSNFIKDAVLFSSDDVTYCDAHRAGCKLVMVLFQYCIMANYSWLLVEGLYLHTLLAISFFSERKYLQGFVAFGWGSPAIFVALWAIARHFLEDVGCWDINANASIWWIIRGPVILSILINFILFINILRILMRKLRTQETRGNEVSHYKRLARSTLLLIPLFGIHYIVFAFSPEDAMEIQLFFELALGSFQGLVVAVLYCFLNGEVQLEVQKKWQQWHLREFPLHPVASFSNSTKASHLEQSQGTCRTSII

In the case of `O[C@H](CS)[C@H](O)CS` (racemic) [DTT, dithiothreitol], the “specific binding in the GHRH assay after preincubation” value (GHRH-R [1]; 1 mM dithiothreitol) is reported as “completely eliminated”.
In the case of `Nc1nc2c(ncn2[C@@H]2O[C@H](COP(=O)(O)OP(=O)(O)OP(O)(O)=S)[C@@H](O)[C@H]2O)c(=O)[nH]1` [GTPγS], the “reduction of 55 kDa cross-linked band” value (GHRH-R [2]; 50 µM GTPγS) is reported as “over 50%”, the “displacement of both photoprobes from membrane pellets” value (GHRH-R [1]; 50 µM GTPγS) is reported as “partially displaced” and the “reduction of specific binding of GHRHa radioligand” value (GHRH-R [1]; 50 µM GTPγS) is reported as “up to 65%”.
In the case of `CC[C@H](C)[C@H](NC(=O)CNC(=O)[C@H](CC(=O)O)NC(=O)[C@H](CO)NC(=O)[C@@H](N)Cc1c[nH]cn1)C(=O)N[C@@H](Cc1ccccc1)C(=O)N[C@H](C(=O)N[C@@H](CC(=O)O)C(=O)N[C@@H](CO)C(=O)N[C@@H](Cc1ccc(O)cc1)C(=O)N[C@@H](CO)C(=O)N[C@@H](CCCNC(=N)N)C(=O)N[C@@H](Cc1ccc(O)cc1)C(=O)N[C@@H](CCCNC(=N)N)C(=O)N[C@@H](CCCCN)C(=O)N[C@@H](CCC(N)=O)C(=O)N[C@@H](CCSC)C(=O)N[C@@H](C)C(=O)N[C@H](C(=O)N[C@@H](CCCCN)C(=O)N[C@@H](CCCCN)C(=O)N[C@@H](Cc1ccc(O)cc1)C(=O)N[C@@H](CC(C)C)C(=O)N[C@@H](C)C(=O)N[C@@H](C)C(=O)N[C@H](C(=O)N[C@@H](CC(C)C)C(=O)NCC(=O)N[C@@H](CCCCN)C(=O)N[C@@H](CCCNC(=N)N)C(=O)N[C@@H](Cc1ccc(O)cc1)C(=O)N[C@@H](CCCCN)C(=O)N[C@@H](CCC(N)=O)C(=O)N[C@@H](CCCNC(=N)N)C(=O)N[C@H](C(=O)N[C@@H](CCCCN)C(=O)N[C@@H](CC(N)=O)C(=O)N[C@@H](CCCCN)C(N)=O)C(C)C)C(C)C)C(C)C)[C@@H](C)O` [PACAP], the “displacement of GHRH in ovine pituitary” value (GHRH-R [1]) is reported as “significant displacement” and the “competition for the GHRHa binding site” value (GHRH-R [1]) is reported as “no competition; also recorded: did not compete”.
In the case of GHRH(1-29)-NH2, the inhibition [3] is given as 20%.
In the case of “PHM: competing peptide of the VIP family tested at 100 nM (HADGVFTSDFSKLLGQLSAKKYLESLM; ends and bridges not checked; UniProt P01282 81-107, looked up)”, the “binding of iodinated GHRH in presence of peptide” value (from here on “binding of iodinated GHRH”) (GHRH-R [4]) is reported as “uneffected”.
For VIP: vasoactive intestinal peptide, the “effect on 55 kDa cross-linked band” value (GHRH-R [2]; 100 nM VIP) was “unaffected”, the “effect on bound counts of GHRHa” value (GHRH-R [4]; 100 nM VIP, transfected COS cells, Figure 15) was “no effect” and the “binding of iodinated GHRH” value (GHRH-R [4]) was “uneffected”. For the same molecule, the “displacement of GHRH in ovine pituitary” value (GHRH-R [1]) was “not”, the “competition for the GHRHa binding site” value (GHRH-R [1]) was “no competition; also recorded: did not compete” and the inhibition [3] was 20%.
In the case of calcitonin, the “binding of iodinated GHRH” value (GHRH-R [4]) is reported as “uneffected”.
With galanin the “binding of iodinated GHRH” value (GHRH-R [4]) was “uneffected”.
For helodermin, the Kd ([3]; using 125I-secretin, read-out: Kds) is listed as 200 nM.
For parathyroid hormone, the “binding of iodinated GHRH” value (GHRH-R [4]) was “uneffected”.
For secretin, the “binding of iodinated GHRH” value (GHRH-R [4]) was “uneffected”.
In the case of somatostatin, the “binding of iodinated GHRH” value (GHRH-R [4]) is reported as “uneffected”.
